In US20240299359A1, “PHARMACEUTICAL COMPOSITION FOR ANIMALS CONTAINING 5-HYDROXY-METHYLIMIDAZOLIDINE-2,4-DIONE COMPOUND AS ACTIVE INGREDIENT” (KYONGBO PHARM. CO., LTD., priority 2021, published 2024):
Like-named read-outs stand apart in the source and are kept apart here.

Legend:
[1] = Pharmacokinetic analysis in beagles after oral administration; assay type: in vivo, beagle; conditions: for Cmax / AUC(0-inf) / AUC(0-t) / half-life / Tmax: beagle, dog, plasma, mean; for Cmax: po, read-out: Cmax (average highest plasma concentration); for Tmax: read-out: tmax (time of highest plasma concentration)
Description: For this purpose, 5-hydroxy-1-methylimidazolidine-2,4-dione was weighed, based on the fasting weight measured on the day of administration, using an electronic scale in accordance with the oral doses of 10, 50, 100, and 200 mg/kg for each experimental group, and was added to a 500 ml glass container, DW (distilled water) was added as an excipient, and the drug was dissolved therein through vortexing and stirring. Then, the beagles used in the subsequent experiments were acclimatized and environmentally adapted for about a week before the test, and then the compound was orally administered to each beagle at the doses listed in the table below. In addition, the beagles used in this experiment were bred and kept at the Endik Institute.
The compound was administered orally, blood was collected in a volume of 3 ml using a syringe from the jugular vein of the experimental beagle at each time (0 (before administration), 0.25, 0.5, 1, 1.5, 2, 4, 8, 12, and 24 hours), the collected blood was centrifuged at 4,000 rpm/10 minutes at 4° C. and dispensed into 500 μl of a set of two separate 1.5 ml tubes, and the remaining plasma was dispensed into another set and immediately stored in a deep freezer at −70° C. until analysis. The concentration of 5-hydroxy-1-methylimidazolidine-2,4-dione in the collected plasma was measured using the following method.
First, a standard sample solution for preparing a calibration curve was prepared. 1.2 mg of standard 5-hydroxy-1-methylimidazolidine-2,4-dione was dissolved in 0.12 ml of DMSO to prepare a stock solution having a final concentration of 10 mg/ml. Then, the stock solution was diluted to a final concentration of 500, 1,000, 2,000, 5,000, 10,000, 30,000, 100,000, 300,000, and 1,000,000 ng/ml with 70% acetonitrile as a solvent. Then, for an internal standard sample solution, 5.0 mg of 4-methylumbelliferone was dissolved in acetonitrile to prepare a final stock solution of 5 mg/ml, which was then diluted with acetonitrile to obtain a final concentration of 200 ng/ml.
To prepare a calibration curve using each solution prepared above, standard 5-hydroxy-1-methylimidazolidine-2,4-dione was dissolved in DMSO to prepare a 10 mg/ml standard stock solution and then the standard stock solution was frozen at −20° C., and the prepared standard stock solution was diluted with 70% acetonitrile to prepare a working solution. The working solution was diluted with blank plasma stored frozen below −20° C. (working standard solution 10%, blank plasma 90%) to prepare standard plasma to adjust the concentration of analyte in plasma to […]. 20 μl of each standard plasma was placed in a 1.5 ml micro-tube and then 180 μl of internal standard solution (200 ng/ml in ACN) was added thereto. After vortexing for 5 minutes, centrifugation was performed at 4° C. and 17,600×g for 5 minutes. 150 μl of the supernatant was transferred to a 300 μl screw vial, 5 μl of the supernatant was injected into the HPLCMS/MS system, and a calibration curve was plotted at the ratio of the peak area of the analyte to the obtained peak area of the internal standard.
Then, the plasma sample collected from the beagle was subjected to the following pretreatment for assay. 180 μl of the internal standard solution was added to 20 μl of the plasma sample to induce protein precipitation. Then, the mixed sample was suspended using a vortex mixer for 5 minutes, centrifuged at 17,600×g for 5 minutes, and 150 μl of the supernatant was transferred to an analysis container. Then, 5 μl of the supernatant was injected into a HPLC/MS/MS system and analysis was performed. The instruments used for analysis were an HPLC system (Agilent 1100 Series with on-line degasser, binary pump, thermostatted well-plate autosampler and column compartment) and an MS/MS system (SCIEX 4000 QTRAP System). […]

beagles = assay: 13-week repeated oral toxicity: observation of general symptoms; assay type: in vivo; conditions: repeated oral once a day for 13 weeks
Description: Furthermore, the present inventors performed a toxicity test on 5-hydroxy-1-methylimidazolidine-2,4-dione in beagles. Toxicity tests were conducted based on single oral administration and repeated oral administration for 13 weeks. The stability of the compound was analyzed by evaluating the analysis items including clinical symptoms, weight, feed intake, blood test, urine and eye test during the administration period.
General symptoms (such as vomiting, salivation, diarrhea, and abnormal behavior) and death were observed daily during the 13-week test period, starting from the day before administration, and abnormalities were recorded in clinical symptoms.

[2] = oral G3 (100 ng/kg [sic]; text 100 mg/kg)

**Q.** What does the source list for `CN1C(=O)NC(=O)C1O` (stereo not drawn) [KBP-001, 5-hydroxy-1-methylimidazolidine-2,4-dione]?
**A.** Cmax ([1]; 10 mg/kg, oral 10 mg/kg (G1)): 15 µg/mL; Cmax ([1]; 100 mg/kg, oral G3 (100 ng/kg [sic]; text 100 mg/kg)): 102 µg/mL; Cmax ([1]; 200 mg/kg, oral 200 mg/kg (G4)): 233 µg/mL; AUC(0-inf) ([1]; oral 10 mg/kg (G1)): 66.2 µg·h/mL; AUC(0-t) ([1]; oral 10 mg/kg (G1)): 65.4 µg·h/mL; half-life ([1]; oral 10 mg/kg (G1)): 2.89 h; Tmax ([1]; oral 10 mg/kg (G1)): 0.6 h; AUC(0-inf) ([1]; oral 50 mg/kg (G2)): 289 µg·h/mL; AUC(0-t) ([1]; oral 50 mg/kg (G2)): 288 µg·h/mL; half-life ([1]; oral 50 mg/kg (G2)): 2.8 h; Tmax ([1]; oral 50 mg/kg (G2)): 0.35 h; AUC(0-inf) ([1]; oral 200 mg/kg (G4)): 1120 µg·h/mL; AUC(0-t) ([1]; oral 200 mg/kg (G4)): 1110 µg·h/mL; half-life ([1]; oral 200 mg/kg (G4)): 2.9 h; Tmax ([1]; oral 200 mg/kg (G4)): 0.45 h; AUC(0-inf) [1, 2]: 468 µg·h/mL; AUC(0-t) [1, 2]: 466 µg·h/mL; half-life [1, 2]: 2.97 h; Tmax [1, 2]: 0.8 h; adverse reactions ([1]; single oral 10, 50, 100, 200 mg/kg, until end of PK test): no adverse reactions were observed; general symptoms and deaths (beagles): no unusual symptoms (vomiting, salivation, diarrhea, behavioral abnormalities, etc.) or deaths occurred
